Source: BindingDB's records for doi:10.1124/jpet.104.075069 (Targacept, 2005)
pKi: −log10 of the molar value.

Assays:
[1] = target: Neuronal acetylcholine receptor subunit alpha-4 (Rattus norvegicus, UniProt P09483)
[2] = target: Neuronal acetylcholine receptor subunit alpha-7 (Rattus norvegicus, UniProt Q05941)
Chain of Neuronal acetylcholine receptor subunit alpha-7 (Q05941 whole entry): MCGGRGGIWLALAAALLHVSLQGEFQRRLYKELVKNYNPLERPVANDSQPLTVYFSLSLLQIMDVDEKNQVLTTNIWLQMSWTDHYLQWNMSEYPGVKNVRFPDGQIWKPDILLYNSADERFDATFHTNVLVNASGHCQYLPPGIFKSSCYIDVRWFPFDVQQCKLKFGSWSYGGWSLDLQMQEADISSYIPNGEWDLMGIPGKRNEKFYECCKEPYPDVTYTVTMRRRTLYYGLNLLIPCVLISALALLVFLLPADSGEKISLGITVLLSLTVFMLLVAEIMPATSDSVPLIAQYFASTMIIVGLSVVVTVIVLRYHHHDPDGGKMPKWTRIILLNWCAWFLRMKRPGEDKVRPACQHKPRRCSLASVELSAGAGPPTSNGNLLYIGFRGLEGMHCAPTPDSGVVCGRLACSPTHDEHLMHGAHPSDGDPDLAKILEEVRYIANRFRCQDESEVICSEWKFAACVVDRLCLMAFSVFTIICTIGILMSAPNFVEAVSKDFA

Chain of Neuronal acetylcholine receptor subunit alpha-4 (P09483 whole entry): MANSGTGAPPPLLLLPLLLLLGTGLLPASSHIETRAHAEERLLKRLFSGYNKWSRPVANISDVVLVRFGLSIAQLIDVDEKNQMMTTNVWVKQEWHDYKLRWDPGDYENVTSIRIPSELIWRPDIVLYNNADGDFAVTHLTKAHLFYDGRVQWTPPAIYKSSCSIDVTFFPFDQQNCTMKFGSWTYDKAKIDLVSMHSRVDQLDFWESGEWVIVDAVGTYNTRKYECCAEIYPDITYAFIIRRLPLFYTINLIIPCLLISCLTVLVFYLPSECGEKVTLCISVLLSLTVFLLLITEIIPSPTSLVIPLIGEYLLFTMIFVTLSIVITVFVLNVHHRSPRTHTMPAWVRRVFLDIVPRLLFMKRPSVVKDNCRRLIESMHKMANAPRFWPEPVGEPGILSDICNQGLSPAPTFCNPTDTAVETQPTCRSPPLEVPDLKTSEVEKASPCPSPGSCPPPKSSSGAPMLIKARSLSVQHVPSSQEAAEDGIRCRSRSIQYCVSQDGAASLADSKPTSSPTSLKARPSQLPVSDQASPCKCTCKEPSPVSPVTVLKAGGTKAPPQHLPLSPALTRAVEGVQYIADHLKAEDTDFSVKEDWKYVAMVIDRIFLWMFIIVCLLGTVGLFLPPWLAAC

| SMILES | pKi [1] | pKi [2] |
| --- | --- | --- |
| Cc1cc(C2CCCN2C)on1 (stereo not drawn) [ABT-418] | 8.33 | 5.71 |
| c1cncc(C2CC3CCN2CC3)c1 (stereo not drawn) [TC-2429] | 9.00 | 7.91 |
| CNC(=O)OCC[N+](C)(C)C [CAS_14721-69-8] | 8.60 | 5.36 |
| COC1CC=C2CCN3CCC4=C(CC(=O)OC4)C23C1 (stereo not drawn) [NSC_31762] | 7.61 | 5.11 |
| C[N+](C)(C)CCOC(N)=O [(2-Hydroxyethyl)trimethyl ammonium chloride carbamate] | 7.18 | 5.00 |
| C#Cc1cncc(C2CCCN2C)c1 (stereo not drawn) [NSC_6442277] | 9.30 | 4.84 |
| O=c1cccc2n1CC1CNCC2C1 (stereo not drawn) [CAS_485-35-8] | 9.70 | 5.94 |
| c1cncc(OCC2CCN2)c1 (stereo not drawn) [A-85380] | – | 7.26 |
| CCN1CC2(COC(=O)c3ccccc3-n3c(O)cc(C)c3O)CCC(OC)C34C5CC6C(OC)CC(O)(C5C6OC)C(O)(C(OC)C23)C14 (stereo not drawn) [CAS_21019-30-7] | 6.23 | – |
| COc1ccc(C=C2CCCN=C2c2cccnc2)c(OC)c1 [CAS_156223-05-1] | 6.56 | 6.22 |
